Test results published in ChEMBL document CHEMBL3046208, “Natural and synthetic podolactones with potential use as natural herbicide models” (2000).
Active and inactive are the calls of the source. No cut-off for these calls is given here.

Key:
Triticum aestivum [1] = test: Inhibition of shoot length of Triticum aestivum (wheat) at 10 uM after 5 days relative to untreated control; assay type: functional, organism-based
Hordeum vulgare [2] = test: Inhibition of root length of Hordeum vulgare (barley) at 0.1 mM after 5 days relative to untreated control; assay type: functional; details: 120 h
Hordeum vulgare [3] = test: Inhibition of shoot length of Hordeum vulgare (barley) at 10 uM after 5 days relative to untreated control; assay type: functional, organism-based
Lactuca sativa [4] = test: Inhibition of root length of Lactuca sativa cv. Roman (lettuce) at 0.1 mM after 5 days relative to untreated control; assay type: functional; details: 120 h
Allium cepa [5] = test: Stimulation of shoot length of Allium cepa (onion) at 0.1 mM after 5 days relative to untreated control; assay type: functional
Solanum lycopersicum [6] = test: Inhibition of germination of Solanum lycopersicum (tomato) at 0.1 mM after 5 days relative to untreated control; assay type: functional; details: 120 h
Lepidium sativum [7] = test: Inhibition of germination of Lepidium sativum at 0.1 mM after 5 days relative to untreated control; assay type: functional; details: 120 h
Hordeum vulgare [8] = test: Stimulation of shoot length of Hordeum vulgare (barley) at 0.1 mM after 5 days relative to untreated control; assay type: functional
Allium cepa [9] = test: Inhibition of root length of Allium cepa (onion) at 0.1 mM after 5 days relative to untreated control; assay type: functional; details: 120 h
Solanum lycopersicum [10] = test: Inhibition of shoot length of Solanum lycopersicum (tomato) at 1 uM after 5 days relative to untreated control; assay type: functional; details: 120 h
Lepidium sativum [11] = test: Inhibition of root length of Lepidium sativum at 0.1 mM after 5 days relative to untreated control; assay type: functional; details: 120 h
Lepidium sativum [12] = test: Inhibition of root length of Lepidium sativum at 10 uM after 5 days relative to untreated control; assay type: functional, organism-based
Lepidium sativum [13] = test: Stimulation of germination of Lepidium sativum at 0.1 mM after 5 days relative to untreated control; assay type: functional
Lepidium sativum [14] = test: Inhibition of shoot length of Lepidium sativum at 0.1 mM after 5 days relative to untreated control; assay type: functional; details: 120 h
Lepidium sativum [15] = test: Stimulation of shoot length of Lepidium sativum at 1 uM after 5 days relative to untreated control; assay type: functional
Allium cepa [16] = test: Stimulation of root length of Allium cepa (onion) at 0.1 mM after 5 days relative to untreated control; assay type: functional
Hordeum vulgare [17] = test: Inhibition of germination of Hordeum vulgare (barley) at 0.1 mM after 5 days relative to untreated control; assay type: functional; details: 120 h
Lactuca sativa [18] = test: Inhibition of germination of Lactuca sativa cv. Nigra (lettuce) at 0.1 mM after 5 days relative to untreated control; assay type: functional; details: 120 h
Triticum aestivum [19] = test: Stimulation of shoot length of Triticum aestivum (wheat) at 0.1 mM after 5 days relative to untreated control; assay type: functional
Lactuca sativa [20] = test: Inhibition of germination of Lactuca sativa cv. Roman (lettuce) at 0.1 mM after 5 days relative to untreated control; assay type: functional; details: 120 h
Allium cepa [21] = test: Inhibition of shoot length of Allium cepa (onion) at 10 uM after 5 days relative to untreated control; assay type: functional; details: 120 h
Lactuca sativa [22] = test: Stimulation of shoot length of Lactuca sativa cv. Nigra (lettuce) at 0.1 mM after 5 days relative to untreated control; assay type: functional
Lactuca sativa [23] = test: Stimulation of shoot length of Lactuca sativa cv. Roman (lettuce) at 0.1 mM after 5 days relative to untreated control; assay type: functional
Allium cepa [24] = test: Inhibition of shoot length of Allium cepa (onion) at 0.1 mM after 5 days relative to untreated control; assay type: functional; details: 120 h
Lepidium sativum [25] = test: Stimulation of root length of Lepidium sativum at 1 uM after 5 days relative to untreated control; assay type: functional
Solanum lycopersicum [26] = test: Inhibition of root length of Solanum lycopersicum (tomato) at 1 uM after 5 days relative to untreated control; assay type: functional; details: 120 h
Hordeum vulgare [27] = test: Inhibition of root length of Hordeum vulgare (barley) at 10 uM after 5 days relative to untreated control; assay type: functional, organism-based
Lactuca sativa [28] = test: Inhibition of shoot length of Lactuca sativa cv. Nigra (lettuce) at 0.1 mM after 5 days relative to untreated control; assay type: functional; details: 120 h
Solanum lycopersicum [29] = test: Inhibition of root length of Solanum lycopersicum (tomato) at 0.1 mM after 5 days relative to untreated control; assay type: functional; details: 120 h
Hordeum vulgare [30] = test: Inhibition of shoot length of Hordeum vulgare (barley) at 0.1 mM after 5 days relative to untreated control; assay type: functional; details: 120 h
Allium cepa [31] = test: Inhibition of germination of Allium cepa (onion) at 0.1 mM after 5 days relative to untreated control; assay type: functional; details: 120 h
Solanum lycopersicum [32] = test: Inhibition of shoot length of Solanum lycopersicum (tomato) at 10 uM after 5 days relative to untreated control; assay type: functional, organism-based
Solanum lycopersicum [33] = test: Inhibition of shoot length of Solanum lycopersicum (tomato) at 0.1 mM after 5 days relative to untreated control; assay type: functional; details: 120 h
Solanum lycopersicum [34] = test: Inhibition of germination of Solanum lycopersicum (tomato) at 10 uM after 5 days relative to untreated control; assay type: functional, organism-based
Lepidium sativum [35] = test: Inhibition of germination of Lepidium sativum at 10 uM after 5 days relative to untreated control; assay type: functional, organism-based
Triticum aestivum [36] = test: Inhibition of shoot length of Triticum aestivum (wheat) at 0.1 mM after 5 days relative to untreated control; assay type: functional; details: 120 h
Lactuca sativa [37] = test: Stimulation of germination of Lactuca sativa cv. Roman (lettuce) at 0.1 mM after 5 days relative to untreated control; assay type: functional
Lepidium sativum [38] = test: Stimulation of root length of Lepidium sativum at 0.1 mM after 5 days relative to untreated control; assay type: functional
Solanum lycopersicum [39] = test: Inhibition of root length of Solanum lycopersicum (tomato) at 10 uM after 5 days relative to untreated control; assay type: functional, organism-based
Lactuca sativa [40] = test: Stimulation of root length of Lactuca sativa cv. Roman (lettuce) at 0.1 mM after 5 days relative to untreated control; assay type: functional
Triticum aestivum [41] = test: Inhibition of root length of Triticum aestivum (wheat) at 0.1 mM after 5 days relative to untreated control; assay type: functional; details: 120 h
Lactuca sativa [42] = test: Inhibition of root length of Lactuca sativa cv. Nigra (lettuce) at 0.1 mM after 5 days relative to untreated control; assay type: functional; details: 120 h
Triticum aestivum [43] = test: Inhibition of root length of Triticum aestivum (wheat) at 10 uM after 5 days relative to untreated control; assay type: functional; details: 120 h
Lactuca sativa [44] = test: Stimulation of germination of Lactuca sativa cv. Nigra (lettuce) at 0.1 mM after 5 days relative to untreated control; assay type: functional
Triticum aestivum [45] = test: Inhibition of germination of Triticum aestivum (wheat) at 0.1 mM after 5 days relative to untreated control; assay type: functional; details: 120 h
Solanum lycopersicum [46] = test: Stimulation of germination of Solanum lycopersicum (tomato) at 0.1 mM after 5 days relative to untreated control; assay type: functional
Hordeum vulgare [47] = test: Stimulation of germination of Hordeum vulgare (barley) at 0.1 mM after 5 days relative to untreated control; assay type: functional
Lactuca sativa [48] = test: Inhibition of shoot length of Lactuca sativa cv. Roman (lettuce) at 0.1 mM after 5 days relative to untreated control; assay type: functional; details: 120 h
Triticum aestivum [49] = test: Stimulation of root length of Triticum aestivum (wheat) at 0.1 mM after 5 days relative to untreated control; assay type: functional
Triticum aestivum [50] = test: Stimulation of germination of Triticum aestivum (wheat) at 0.1 mM after 5 days relative to untreated control; assay type: functional
Lepidium sativum [51] = test: Inhibition of shoot length of Lepidium sativum at 10 uM after 5 days relative to untreated control; assay type: functional, organism-based
Solanum lycopersicum [52] = test: Stimulation of shoot length of Solanum lycopersicum (tomato) at 0.1 mM after 5 days relative to untreated control; assay type: functional
Lepidium sativum [53] = test: Stimulation of shoot length of Lepidium sativum at 0.1 mM after 5 days relative to untreated control; assay type: functional
Allium cepa [54] = test: Stimulation of germination of Allium cepa (onion) at 0.1 mM after 5 days relative to untreated control; assay type: functional
Allium cepa [55] = test: Inhibition of root length of Allium cepa (onion) at 10 uM after 5 days relative to untreated control; assay type: functional; details: 120 h
Hordeum vulgare [56] = test: Stimulation of root length of Hordeum vulgare (barley) at 0.1 mM after 5 days relative to untreated control; assay type: functional
Lactuca sativa [57] = test: Stimulation of root length of Lactuca sativa cv. Nigra (lettuce) at 0.1 mM after 5 days relative to untreated control; assay type: functional
Solanum lycopersicum [58] = test: Stimulation of root length of Solanum lycopersicum (tomato) at 0.1 mM after 5 days relative to untreated control; assay type: functional

CO[C@@H]1OC(=O)C=C2C1=C[C@H]1OC(=O)[C@@]3(C)CCC[C@@]2(C)[C@@H]13
inhibition (Triticum aestivum [1]): inactive
inhibition at 100 µM (Hordeum vulgare [2]): > 40%
inhibition (Hordeum vulgare [3]): inactive
inhibition at 100 µM (Lactuca sativa [4]): > 40%
Activity (Allium cepa [5]): >40%
inhibition at 100 µM (Solanum lycopersicum [6]): > 40%
inhibition at 100 µM (Lepidium sativum [7]): > 40%
Activity (Hordeum vulgare [8]): >40%
inhibition at 100 µM (Allium cepa [9]): > 40%
inhibition at 1 µM (Solanum lycopersicum [10]): -44%
inhibition at 100 µM (Lepidium sativum [11]): > 40%
inhibition (Lepidium sativum [12]): Active
Activity (Lepidium sativum [13]): >40%
inhibition at 100 µM (Lepidium sativum [14]): > 40%
Activity (Lepidium sativum [15]): -73%
Activity (Allium cepa [16]): >40%
inhibition at 100 µM (Hordeum vulgare [17]): > 40%
inhibition at 100 µM (Lactuca sativa [18]): 20%
Activity (Triticum aestivum [19]): >40%
inhibition at 100 µM (Lactuca sativa [20]): > 40%
inhibition at 10 µM (Allium cepa [21]): -74%
Activity (Lactuca sativa [22]): >40%
Activity (Lactuca sativa [23]): >40%
inhibition at 100 µM (Allium cepa [24]): > 40%
Activity (Lepidium sativum [25]): -44%
inhibition at 1 µM (Solanum lycopersicum [26]): -45%
inhibition (Hordeum vulgare [27]): inactive
inhibition at 100 µM (Lactuca sativa [28]): > 40%
inhibition at 100 µM (Solanum lycopersicum [29]): > 40%
inhibition at 100 µM (Hordeum vulgare [30]): > 40%
inhibition at 100 µM (Allium cepa [31]): > 40%
inhibition (Solanum lycopersicum [32]): Active
inhibition at 100 µM (Solanum lycopersicum [33]): > 40%
inhibition (Solanum lycopersicum [34]): Active
inhibition (Lepidium sativum [35]): Active
inhibition at 100 µM (Triticum aestivum [36]): > 40%
Activity (Lactuca sativa [37]): >40%
Activity (Lepidium sativum [38]): >40%
inhibition (Solanum lycopersicum [39]): Active
Activity (Lactuca sativa [40]): >40%
inhibition at 100 µM (Triticum aestivum [41]): > 40%
inhibition at 100 µM (Lactuca sativa [42]): > 40%
inhibition at 10 µM (Triticum aestivum [43]): -42%
Activity (Lactuca sativa [44]): 20%
inhibition at 100 µM (Triticum aestivum [45]): > 40%
Activity (Solanum lycopersicum [46]): >40%
Activity (Hordeum vulgare [47]): >40%
inhibition at 100 µM (Lactuca sativa [48]): > 40%
Activity (Triticum aestivum [49]): >40%
Activity (Triticum aestivum [50]): >40%
inhibition (Lepidium sativum [51]): Active
Activity (Solanum lycopersicum [52]): >40%
Activity (Lepidium sativum [53]): >40%
Activity (Allium cepa [54]): >40%
inhibition at 10 µM (Allium cepa [55]): -54%
Activity (Hordeum vulgare [56]): >40%
Activity (Lactuca sativa [57]): >40%
Activity (Solanum lycopersicum [58]): >40%
